# Laboratory results as given in patent US12486246B2, “Replication protein A (RPA)-DNA interaction inhibitors” (THE TRUSTEES OF INDIANA UNIVERSITY, priority 2019, dated 2025).
# Assays:
# [1] = biological target: T1, full length heterotrimeric human RPA (Homo sapiens, UniProt P27694); test: Electrophoretic mobility shift assay (EMSA), binding of full length human RPA to ssDNA; settings: full length human RPA binding to DNA, mean ± SD of minimum triplicate experiments
# T1 construct: Full length, heterotrimeric human RPA (fl-RPA) and DBD-A/B constructs were expressed and purified; made in house
# T1 sequence (P27694 whole entry): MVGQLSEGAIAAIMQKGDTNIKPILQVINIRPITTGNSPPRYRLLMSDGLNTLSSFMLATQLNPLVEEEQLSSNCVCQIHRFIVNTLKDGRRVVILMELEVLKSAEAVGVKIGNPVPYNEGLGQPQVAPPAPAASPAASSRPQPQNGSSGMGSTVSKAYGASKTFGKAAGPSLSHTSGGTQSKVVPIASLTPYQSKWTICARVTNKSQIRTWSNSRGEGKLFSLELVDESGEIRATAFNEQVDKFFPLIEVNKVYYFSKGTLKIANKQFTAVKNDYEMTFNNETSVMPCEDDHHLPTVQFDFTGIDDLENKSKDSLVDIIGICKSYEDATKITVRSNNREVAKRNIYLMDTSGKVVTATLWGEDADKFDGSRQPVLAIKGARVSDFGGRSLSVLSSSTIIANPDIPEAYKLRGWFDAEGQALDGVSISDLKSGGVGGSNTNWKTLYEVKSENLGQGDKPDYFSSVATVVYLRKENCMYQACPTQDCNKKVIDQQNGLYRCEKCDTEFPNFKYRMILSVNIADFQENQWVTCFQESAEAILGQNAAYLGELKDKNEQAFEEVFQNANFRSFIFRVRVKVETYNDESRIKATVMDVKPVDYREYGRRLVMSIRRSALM
# T1 sequence (P15927 whole entry partner): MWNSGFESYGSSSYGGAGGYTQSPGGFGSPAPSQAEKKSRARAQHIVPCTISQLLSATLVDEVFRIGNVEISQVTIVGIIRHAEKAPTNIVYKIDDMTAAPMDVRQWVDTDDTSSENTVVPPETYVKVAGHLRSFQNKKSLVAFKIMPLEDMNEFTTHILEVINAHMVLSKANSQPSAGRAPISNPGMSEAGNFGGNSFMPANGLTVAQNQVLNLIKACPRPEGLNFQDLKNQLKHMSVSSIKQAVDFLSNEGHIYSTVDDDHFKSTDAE
# T1 sequence (P35244 whole entry partner): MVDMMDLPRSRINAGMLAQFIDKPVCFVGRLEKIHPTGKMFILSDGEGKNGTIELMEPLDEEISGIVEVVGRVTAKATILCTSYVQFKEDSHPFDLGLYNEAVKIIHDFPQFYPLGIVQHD
# Summary of the method: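 Full-length human RPA (50 nM) preincubated 30 min with compound (DMSO ≤5%), then 2.5 nM 5′-32P 34-base ssDNA added for 5 min at room temperature in 20 mM HEPES pH 7.8, 50 mM NaCl. Bound/unbound resolved by 6% native PAGE, phosphorimager quantified; IC50 by non-linear regression.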
# H460 cells = test: Caspase 3/7 activation (CellEvent Caspase-3/7 Green); type: cell-based; settings: 24 hours treatment
# Procedure: Apoptosis induction was determined by activation of Caspase 3 and 7 using the CellEvent™ Caspase-3/7 Green Detection Reagent (Invitrogen). H460 cells were plated at […] in black 96 well plates with clear bottoms (Costar) and incubated for 24 hours prior to treatments. Cells were treated with the indicated concentration of compound 43 or cisplatin for 24 hours. The vehicle (DMSO) concentration was held constant at 1% for compound 43 treatments. For caspase 3/7 detection, media was removed and replaced with PBS containing 5% FBS and 2 μM CellEvent™ Caspase-3/7 Green Detection Reagent. Cells were incubated at 37° C./5% CO2 for 1 hour and fluorescence intensity was measured in a BioTek Synergy H1 plate reader (excitation/emission 485/528). Images were captured with an Evos FL2 Auto microscope (Invitrogen) using a 10× objective.
# [2] = Aqueous solubility as a function of pH; type: physicochemical; settings: thermodynamic from solid
# Procedure: (§1) Aqueous solubility was determined by suspending compound in un-buffered water with stirring. Insoluble material was removed by sedimentation or filtration and soluble compound quantified by absorbance spectroscopy and LC/MS. pH dependence was determined by suspending compound in 10 mM citrate buffer at pH 4.0 or 10 mM phosphate […] as described above in the description.
# (§2) The morpholine ring is commonly introduced into solvent exposed regions as a privileged solubilizing group to improve solubility or pharmacokinetic properties including metabolic stability of a prospective drug scaffold which is exemplified by many FDA approved drugs. Modifications on Ring A had less of an effect than the morpholino modifications at the alkyl carboxylic acid side chain. To determine the effect of pH on solubility, we prepared solution at 1 mM in citrate buffer at pH 4, phosphate buffer at pH 7 and carbonate buffer at pH 9.5.
# [3] = Aqueous solubility in unbuffered water; type: physicochemical; settings: 43, 44, 45, 46, 47 vs 9, 16, 26, 28, 29 respectively
# Procedure: as §1, §2
# [4] = tested on: sonicated salmon sperm DNA; test: Fluorescent intercalator displacement (FID) assay, SYBR-Green; type: binding; settings: 25 mM MOPS pH 6.5
# Summary of the method: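 Displacement of SYBR-Green from sonicated salmon sperm DNA (8.29 ng/μL) in 25 mM MOPS pH 6.5 with compound at indicated concentrations; doxorubicin positive control. Fluorescence (Ex 485/Em 528 nm) read within 5 min of incubation.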
compound,measurement,setting,value
"CCOc1ccc2cc(C3CC(c4ccc(I)cc4)=NN3C(=O)CCCC(=O)NCCCN3CCOCC3)c(Cl)nc2c1 (stereo not shown) [Compound 43, 5-(5-(2-Chloro-7-ethoxyquinolin-3-yl)-3-(4-iodophenyl)-4,5-dihydro-1H-pyrazol-1-yl)-N-(3-morpholinopropyl)-5-oxopentanamide]",IC50,[1],4.99 ± 0.28 µM
same,caspase 3 and 7 activation,H460 cells,potently activates caspase 3 and 7
same,solubility,"[2]; aqueous buffer at pH 9.5, pH 9.5, aqueous buffer",3.62 ± 2.22 µM
same,solubility,"[2]; aqueous buffer, pH 4, citrate buffer",21.4 ± 5.49 µM
same,solubility,"[2]; aqueous buffer, pH 7, phosphate buffer",5.72 ± 2.79 µM
same,aqueous solubility compared to carboxylic acid counterpart (in words),[3],increased solubility
same,DNA binding activity (displacement of SYBR-Green intercalator),[4],No significant DNA binding activity
